Reference: the supplement of paper PMC8671470
Where a name gives a salt, the structure may show the parent alone.

How the values were obtained:
Conditions in all cases: 72 h
[1] = system: KG-1
How it was run: (§1)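 Seeded in RPMI 1640 at densities within the linear growth range, fifteen myeloid leukaemia cell lines were dispensed into 384-well plates with acoustically pre-printed compounds spanning five tenfold doses from 1 to 10,000 nM, in duplicate. The plates were kept for 72 h at 37 °C in 5% CO2 before luminescent ATP viability was measured and normalised to vehicle and to a positive control at 10 µM. Curves were fitted with a four-parameter log-logistic model. The IC50 was taken from those curves.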

[2] = system: KU-812
How it was run: as §1

[3] = system: MV4-11
How it was run: as §1

[4] = system: THP-1
How it was run: as §1

[5] = system: MOLM-13
How it was run: as §1

[6] = system: NOMO-1
How it was run: as §1

[7] = system: HEL
How it was run: as §1

[8] = system: HL-60
How it was run: as §1

[9] = system: ML-2
How it was run: as §1

[10] = system: KCL-22
How it was run: as §1

[11] = system: LAMA-84
How it was run: as §1

[12] = system: Mono-Mac-6
How it was run: as §1

[13] = system: SHI-1
How it was run: as §1

[14] = system: BV-173
How it was run: as §1

[15] = system: K-562
How it was run: as §1

[16] = system: KG-1; test: cell viability (% survival relative to DMSO control, bortezomib = 0%); higher = less cytotoxic
How it was run: (§2)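 Percent survival figures are means of duplicate wells. They were obtained by CellTiter-Glo luminescence after 10 AML and 5 CML cell lines spent 72 h at 37 °C with 5% CO2 in 384-well plates with compounds at 1, 10, 100, 1000 or 10000 nM. Vehicle was set to 100% and a 10 µM positive control to 0%.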

[17] = system: KU-812; test: as above
How it was run: as §2

[18] = system: MV4-11; test: as above
How it was run: as §2

[19] = system: THP-1; test: as above
How it was run: as §2

[20] = system: MOLM-13; test: as above
How it was run: as §2

[21] = system: NOMO-1; test: as above
How it was run: as §2

[22] = system: HEL; test: as above
How it was run: as §2

[23] = system: HL-60; test: as above
How it was run: as §2

[24] = system: ML-2; test: as above
How it was run: as §2

[25] = system: KCL-22; test: as above
How it was run: as §2

[26] = system: LAMA-84; test: as above
How it was run: as §2

[27] = system: Mono-Mac-6; test: as above
How it was run: as §2

[28] = system: SHI-1; test: as above
How it was run: as §2

[29] = system: BV-173; test: as above
How it was run: as §2

[30] = system: K-562; test: as above
How it was run: as §2

OC[C@H]1NC[C@H](O)[C@@H](O)[C@@H]1O [Duvoglustat]
Conditions	IC50 (cell viability) [µM]
[1]	> 10
[2]	> 10
[3]	> 10
[4]	> 10
[5]	> 10
[6]	> 10
[7]	> 10
[8]	> 10
[9]	> 10
[10]	> 10
[11]	> 10
[12]	> 10
[13]	> 10
[14]	> 10
[15]	> 10

cell viability [%]
Conditions	1 nM	10 nM	100 nM	1000 nM	10000 nM
[16]	96.4	111	108	87.3	101
[17]	84.9	99.8	92.5	94.5	103
[18]	93.3	108	92.8	92.6	113
[19]	96.6	92.3	109	84.6	101
[20]	79.3	127	104	83.3	102
[21]	95.8	101	99.5	83.4	105
[22]	94.5	122	99.8	94.4	103
[23]	90.1	180	113	81	125
[24]	95.4	121	117	84.9	106
[25]	90.5	120	107	87	104
[26]	84.3	98	106	88.3	106
[27]	102	107	105	78.9	104
[28]	103	121	109	88	108
[29]	96.5	85.3	104	75.6	96.5
[30]	90.3	94.7	100	88.2	105

CO[C@H]1C[C@@H]2CC[C@@H](C)[C@@](O)(O2)C(=O)C(=O)N2CCCC[C@H]2C(=O)O[C@H]([C@H](C)C[C@@H]2CC[C@@H](OCCO)[C@H](OC)C2)CC(=O)[C@H](C)/C=C(\C)[C@@H](O)[C@@H](OC)C(=O)[C@H](C)C[C@H](C)/C=C/C=C/C=C/1C [Everolimus]
Conditions	IC50 (cell viability) [µM]
[1]	< 0.001
[2]	< 0.001
[3]	0.248
[4]	0.00165
[5]	< 0.001
[6]	0.0225
[7]	0.00274
[8]	3.92
[9]	1.53
[10]	0.00121
[11]	0.782
[12]	0.00104
[13]	0.00115
[14]	0.00411
[15]	0.00342

cell viability [%]
Conditions	1 nM	10 nM	100 nM	1000 nM	10000 nM
[16]	54.3	45.1	41	37.3	30.5
[17]	58.5	44.9	44.8	39.4	36
[18]	62.1	64.6	61.8	53.6	22.6
[19]	83.8	67.5	66.9	59.8	58.9
[20]	49	38.1	48.3	29.7	34.6
[21]	79.7	63.9	72.7	60.4	56.8
[22]	94.9	65.6	67	62.3	58.5
[23]	91.4	75.6	86.3	54.9	43
[24]	88.7	77.3	66.6	58.6	33.8
[25]	66	44.6	36.2	33.8	24.6
[26]	72.2	52.8	62.8	53.7	37.9
[27]	74.2	46.4	53.1	40.7	44.2
[28]	81.8	60.4	65.8	56.7	55.7
[29]	79.3	51.9	56	43.6	34.3
[30]	71	50.4	48.8	44.5	30.6

O=C(NCCN1CCC(n2c(O)nc3ccccc32)CC1)c1cc2cc(F)ccc2[nH]1 [FIPI]
Conditions	IC50 (cell viability) [µM]
[1]	> 10
[2]	> 10
[3]	> 10
[4]	> 10
[5]	> 10
[6]	> 10
[7]	> 10
[8]	> 10
[9]	> 10
[10]	> 10
[11]	> 10
[12]	8.61
[13]	> 10
[14]	> 10
[15]	6.19

cell viability [%]
Conditions	1 nM	10 nM	100 nM	1000 nM	10000 nM
[16]	101	92.4	103	91.2	65.1
[17]	104	92.9	105	106	66.2
[18]	91.3	88.1	100	94.6	53.2
[19]	95.8	93.9	101	105	96.3
[20]	79.6	104	98.9	95.4	69
[21]	96.7	95.4	110	102	95.3
[22]	99.1	99.8	101	104	82.5
[23]	105	103	112	97.7	92.2
[24]	96.3	98.6	107	110	75.8
[25]	100	98	91.1	94.9	67.7
[26]	99.3	103	103	98.6	70.5
[27]	104	107	106	70.6	64.5
[28]	103	104	97.5	97.9	85
[29]	96.9	101	99.9	99.3	58.9
[30]	99.1	106	108	101	27.3

Cc1cc2c(C(C)C)c(O)c(O)c(C=O)c2c(O)c1-c1c(C)cc2c(C(C)C)c(O)c(O)c(C=O)c2c1O [Gossypol]
Conditions	IC50 (cell viability) [µM]
[1]	3.57
[2]	2.41
[3]	3.43
[4]	2.54
[5]	2.98
[6]	2.88
[7]	3.55
[8]	3.87
[9]	2.1
[10]	2.86
[11]	3.34
[12]	2.81
[13]	6.25
[14]	1.6
[15]	3.67

cell viability [%]
Conditions	1 nM	10 nM	100 nM	1000 nM	10000 nM
[16]	95.8	98.9	105	101	5.89
[17]	95	94.2	105	86.1	0.646
[18]	97.7	91.2	93.6	104	-0.358
[19]	95.3	90.3	96.6	84.4	0.727
[20]	104	97.6	95.2	97.1	-0.453
[21]	97.2	97.5	104	94.1	0.946
[22]	101	104	101	108	0.902
[23]	107	108	111	117	0.854
[24]	103	103	105	82.6	0.171
[25]	105	101	116	92.7	2.21
[26]	95.2	106	104	103	0.378
[27]	94.6	85.5	112	91.8	0.586
[28]	101	106	105	98.2	28
[29]	95.8	90	98.8	68.3	0.788
[30]	94.6	103	91	110	1.45

CCN(CCO)CCCC(C)Nc1ccnc2cc(Cl)ccc12 (stereo not given) [Hydroxychloroquine sulfate]
Conditions	IC50 (cell viability) [µM]
[1]	> 10
[2]	> 10
[3]	> 10
[4]	> 10
[5]	> 10
[6]	> 10
[7]	> 10
[8]	> 10
[9]	> 10
[10]	> 10
[11]	> 10
[12]	> 10
[13]	> 10
[14]	> 10
[15]	> 10

cell viability [%]
Conditions	1 nM	10 nM	100 nM	1000 nM	10000 nM
[16]	95.1	108	94.6	112	114
[17]	93	103	105	99	97
[18]	78.8	112	93.2	102	106
[19]	91.5	106	102	92.2	110
[20]	81	117	91.8	127	108
[21]	94.4	106	98.8	94.9	98.2
[22]	89.5	102	99	128	98
[23]	125	101	96.5	98.5	84.1
[24]	92.7	128	92.2	106	105
[25]	88.5	113	99.1	119	99.3
[26]	87	108	106	94.9	93.6
[27]	92.7	104	91.8	88.2	86.7
[28]	95.5	106	101	127	104
[29]	79.7	107	97.6	84.3	94.8
[30]	84.1	97.8	105	101	111
